Read-outs that look alike come from different tables or passages of the source.
Columns and labels:
[1] = In vivo pharmacokinetic study in SD rats; settings: SD rat, plasma; for AUC(0-t): read-out: Area under curve AUC(0-t); for half-life: read-out: Half life T1/2 (converted); for Cmax: read-out: Maximal concentration Cmax
Description: Species: SD rat. Source: Charles River Laboratory Animal Technology Co., Ltd. Number: 3 rats per dosage group.
(§1) 1.1 An appropriate amount of the test sample was accurately weighed, into which 5% DMSO, 10% polyethylene glycol-15 hydroxystearate, 85% normal saline (all in volume percent) were added sequentially, and were fully mixed via vortex or ultrasound, to obtain the dosing solution with a test sample concentration of 0.2 mg/mL for intravenous administration.
as §1, with “1.2” for “1.1”, “0.5” for “0.2”, “oral gavage” for “intravenous”
Weighing was performed before administration, and the administration amount was calculated according to the body weight. The drug was administered orally by gavage or intravenously.
On the day of the test, 100 μL of blood was collected via the jugular sinus at each set time point, and the whole blood samples were placed in anticoagulation tubes containing EDTA-K2. Whole blood samples were centrifuged at 1500 g for 10 min to separate the plasma, and the upper plasma samples were collected into sample tubes. Biological samples were stored at −40° C. to −20° C. for analysis.
According to the requirements of SOP-BA-002 (Liquid Mass Spectrometry for biological sample analysis) of Suzhou 3D BioOptima New Drug Development Co., Ltd., an LC-MS/MS analytical method was established to determine the concentrations of compounds in rat plasma, and used to determine the concentrations of compounds in the biological samples obtained in this experiment.
Pharmacokinetic parameters were calculated using the non-compartment model of Pharsight Phoenix 8.0.

KP-4 cells = assay: Inhibitory activity test of KP-4 cells; format: cell-based; settings: Homo sapiens, 144 h incubation, read-out: KP-4 cell inhibitory activity IC50
Description: On day 1, cell seeding: after digestion of the cells with trypsin, the cells were resuspended to 1*10^4/mL with RPMI1640 complete medium (HyClone Company, Cat. No. SH30809.01) supplemented with 10% FBS (Gibco, 10099141C), mixed evenly, and added into the 96-well plate at 100 μL/well. The plate was put back to the incubator for the adherent growth of cells. On day 2, the addition of the compounds to be tested: 100 μL of the complete medium containing the compounds (the concentration of the compound in the medium was formulated as follows: 3-fold gradient dilution from 60 μM, 10 concentration gradients in total) was added, incubated for 144 hours at 37° C., 5% CO2. On day 8, the cell culture plates were taken out from incubator and equilibrated to room temperature, excess medium was pipetted from the wells so that 50 μL of supernatant was retained, and 50 μL of CellCounting-Lite 2.0 (Nanjing Vazyme Biotech Co., Ltd., Cat. No. DD1101) reagent was added per well, and the cells were fully lysed by shaking at room temperature for 10 min, and incubated for 5 min to detect the fluorescence intensity.
% Inhibition=100−(signal of the well with the compound to be tested−signal of the well with only medium and free of cells)/(signal of the well with cells but without addition of the compound−signal of the well with only medium and free of cells)×100.
(§2) The log value of concentration was used as the X-axis and % Inhibition was used as the Y-axis, so as to fit the dose-effect curve and calculate the IC50 value using nonlinear regression (dose response−variable slope) in the analysis software GraphPad Prism 8.

DOHH-2 cells = assay: Inhibitory activity test of DOHH-2 cells; format: cell-based; settings: Homo sapiens, 120 h incubation, CellTiter-Glo, read-out: DOHH-2 cell inhibitory activity IC50
Description: On day 1, cell seeding: cells were resuspended to the desired density with DMEM complete medium (Gibico, Cat. No. 10569010) supplemented with 10% FBS (Gibco, 10099141C), mixed evenly, and added into the 384-well plate at 30 μL/well with a cell density of 800/well. The compounds to be tested were added as follows: 30 nL of DMSO solution containing the compound (the concentration of the compound in which was formulated as: 3-fold gradient dilution from 10 mM, 10 concentration points in total) was added, incubated for 120 h at 37° C., 5% CO2. On day 6, the cells treated with compounds were removed and equilibrated to room temperature, 30 μL of CellTiter-Glo (Promega company, Cat. No. G7573) reagent was added per well, and the cells were fully lysed by shaking at room temperature, and then incubated in dark at 37° C., 5% CO2 for 30 min, to detect the fluorescence intensity.
% Inhibition=100−(signal of the well with the compound to be tested−signal of the well with only medium and free of cells)/(signal of the well with cells but without the addition of the compound−signal of the well with only medium and free of cells)×100.
as §2

HCT116 MTAP-/- cells = assay: Activity test of HCT116 MTAP gene homozygous deletion cells (CellTiter-Glo); format: cell-based; settings: Homo sapiens, HCT-116, 120 h incubation, read-out: HCT116 MTAP-/- Cell IC50
Procedure, shortened: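 Cells seeded at 1000-3000/well in RPMI-1640 + 10% FBS, serum-starved 4 h, then treated with compound in complete medium for 120 h at 37 °C, 5% CO2. Viability read by CellTiter-Glo luminescence after 60 min; % inhibition versus untreated and cell-free wells, IC50 from dose-response fit.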

## Nc1c(-c2ccc3nccnc3c2)c(=O)n(-c2ccc(Cl)cc2)c2nc(C(F)(F)F)ccc12 [Example 36]
[1]; IV 1 mg/kg
  Apparent clearance rate Cl: 0.745 mL/min/kg
  AUC(0-t): 17600 ng·h/mL
  half-life: 5.8 h
  Cmax: 2710 ng/mL
[1]; PO 5 mg/kg
  AUC(0-t): 67100 ng·h/mL
  half-life: 9.14 h
  Cmax: 4140 ng/mL
[1]; PO 5 mg/kg vs IV 1 mg/kg, read-out: Bioavailability F %
  bioavailability: 76.3%
KP-4 cells
  IC50: 360 nM
DOHH-2 cells
  IC50: 7 nM
HCT116 MTAP-/- cells
  IC50: 7.43 nM
